Experimental data taken from patent US20100029683A1, “Methods for regulating cell mitosis by inhibiting serine/threonine phosphateses” (priority 2008, published 2010).

How the values were obtained:
U373 cells [1] = experiment: Cell cycle distribution of U373 cells by FACS after 48 hours; type: cell-based, human; details: U373, 48 hours
Procedure: (§1) Cells in unsynchronized logarithmic growth were exposed to vehicle or drug and adherent cells and cells in the media were collected. Harvested cells were fixed with 70% cold ethanol for 20 min at −20 degrees, washed with PBS, and stained with 10 ug/ml of PI and 1 ug/ml RNAse in TBS for 30 minutes and analyzed by FACS. A, Flow cytometry profiles of U87 cells after exposures to DMSO only, compound 102 only, 5 uM; TMZ only, 25 uM; compound 102 with TMZ combination, doxorubicin only, 2.0 uM and compound 102 with doxorubicin combination. B, Flow cytometry profiles of U373 cells.
(§2) We analyzed cell cycle patterns of U87MG and U373 cells 48 hours after exposure to TMZ or DOX alone and in combination with compound 102.

U87MG xenografts = experiment: U87MG s.c. xenografts in SCID mice, compound 102 with TMZ; type: in vivo
Procedure: (§3) 5×10^6 U87MG cells were inoculated s.c. into each flank of 20 SCID mice. When the xenografts were 0.5±0.1 cm (day 0), 5 animals each received i.p. vehicle alone days 1-12 (50% DMSO/H2O); compound 102 alone at 1.5 mg/kg days 1-3,5-7, & 9-11; TMZ alone at 80 mg/kg days 4, 8, 12; or both drugs at the same doses and schedules. If xenografts reached 1800 mm^3, animals were sacrificed. […] B, Survival curve combining the data from the study shown in FIG. 12A, with a second identical study involving a total of 10 animals with two xenografts each. Disease-free survival was defined as no recurrence of either xenografts. […] As in 12A, except that xenografts of SH-SY5Y cells were implanted in one flank only and animals were treated with one additional cycle of drugs, i.e., compound 102 on days 13-15, TMZ, on day 16, and compound 102 plus TMZ on the same schedules. […] E, Western blots of U87 cells in culture 24 hours after exposure to compound 102 at 2.5 uM, TMZ at 25 uM or DOX at 2 uM, and compound 102 plus TMZ or DOX. F, Western blots of U373 cells 24 hours after exposure to compound 102 at 2.5 uM, doxorubicin at 2 uM, and both drugs. G, Western blots of U373 cells 24 hours after exposure to TMZ at 25 uM, okadaic acid at 2 nM, and both drugs.
To determine the impact of altering DNA-damage defense mechanisms by inhibiting PP2A on the efficacy of cytotoxic chemotherapy, the effects of compound 102 combined with TMZ, a non-specific DNA-methylating drug, routinely used for the palliative treatment of GBM patients (Prados et al, 2008), were studied. SCID mice bearing s.c. xenografts of either the GBM line U87MG or the neuroblastoma line SH-SY5Y were treated with vehicle alone, compound 102 alone, TMZ alone, or both drugs at the same doses and schedules as when given alone.

PP2A [2] = experiment: PP2A activity in U87 s.c. xenografts and normal brain of SCID mice after i.p. injection; type: in vivo; details: single dose 1.5 mg/kg i.p.
Procedure: PP2A activity in U87 s.c. xenografts (blue) and in normal brain tissue (yellow) of SCID mice at different times after i.p. injection of 1.5 mg/kg compound 102 (one mouse per point; each lysate was measured in triplicate: mean and s.d.)

U87MG cells [3] = experiment: Cell cycle distribution of U87MG cells by FACS after 48 hours; type: cell-based, human
Procedure: as §1, §2

PP2A [4] = target: PP2A (Homo sapiens, UniProt P67775); experiment: Inhibition of purified PP2A (Ser/Thr Phosphatase Assay Kit 1); type: biochemical
Sequence of PP2A (Homo sapiens, UniProt P67775) (P67775 whole entry): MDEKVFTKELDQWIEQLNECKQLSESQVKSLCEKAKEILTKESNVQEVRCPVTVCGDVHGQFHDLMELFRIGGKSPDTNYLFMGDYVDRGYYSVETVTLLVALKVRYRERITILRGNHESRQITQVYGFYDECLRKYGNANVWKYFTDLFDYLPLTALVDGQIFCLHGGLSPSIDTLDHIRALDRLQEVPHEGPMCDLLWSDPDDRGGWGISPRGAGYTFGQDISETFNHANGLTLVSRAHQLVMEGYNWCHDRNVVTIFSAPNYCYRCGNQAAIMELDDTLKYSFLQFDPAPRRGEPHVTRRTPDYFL
From the text: (§4) Inhibition of PP2A and PP1 activity by compound 102 on purified PP1 and PP2A (mean and s.d.; n=3) (Ser/Thr Phosphatase Assay Kit 1, Millipore, Billerica, Mass.)

NB xenografts = experiment: Histologic examination of xenografts 24 hours after a single i.p. injection; type: in vivo, SCID mice; details: 24 hours after single i.p. injection
U87 cells [5] = experiment: U87 cell growth in vitro, viable cell count; type: cell-based, human; details: U87 cells (FIG. 6), read-out: IC50, inhibition of GBM cell growth
Procedure: FIG. 6: Effect of compound 102 on U87 cells in vitro at 1 uM; 2 uM; 5 uM; and 10 uM.
Viable cells were counted (mean and s.d.; n=3; Coulter particle counter).

SH-SY5Y xenografts = experiment: SH-SY5Y neuroblastoma s.c. xenografts in SCID mice, compound 102 with TMZ; type: in vivo; details: as U87MG study plus one additional cycle of drugs; followed 7 weeks
Procedure: 5×10^6 U87MG cells were inoculated s.c. into each flank of 20 SCID mice. When the xenografts were 0.5±0.1 cm (day 0), 5 animals each received i.p. vehicle alone days 1-12 (50% DMSO/H2O); compound 102 alone at 1.5 mg/kg days 1-3,5-7, & 9-11; TMZ alone at 80 mg/kg days 4, 8, 12; or both drugs at the same doses and schedules. If xenografts reached 1800 mm^3, animals were sacrificed. […] B, Survival curve combining the data from the study shown in FIG. 12A, with a second identical study involving a total of 10 animals with two xenografts each. Disease-free survival was defined as no recurrence of either xenografts. […] As in 12A, except that xenografts of SH-SY5Y cells were implanted in one flank only and animals were treated with one additional cycle of drugs, i.e., compound 102 on days 13-15, TMZ, on day 16, and compound 102 plus TMZ on the same schedules. […] E, Western blots of U87 cells in culture 24 hours after exposure to compound 102 at 2.5 uM, TMZ at 25 uM or DOX at 2 uM, and compound 102 plus TMZ or DOX. F, Western blots of U373 cells 24 hours after exposure to compound 102 at 2.5 uM, doxorubicin at 2 uM, and both drugs. G, Western blots of U373 cells 24 hours after exposure to TMZ at 25 uM, okadaic acid at 2 nM, and both drugs. […]

PP1 = PP1 (Homo sapiens, UniProt P62136); experiment: Inhibition of purified PP1 (Ser/Thr Phosphatase Assay Kit 1); type: biochemical
Sequence of PP1 (P62136 whole entry): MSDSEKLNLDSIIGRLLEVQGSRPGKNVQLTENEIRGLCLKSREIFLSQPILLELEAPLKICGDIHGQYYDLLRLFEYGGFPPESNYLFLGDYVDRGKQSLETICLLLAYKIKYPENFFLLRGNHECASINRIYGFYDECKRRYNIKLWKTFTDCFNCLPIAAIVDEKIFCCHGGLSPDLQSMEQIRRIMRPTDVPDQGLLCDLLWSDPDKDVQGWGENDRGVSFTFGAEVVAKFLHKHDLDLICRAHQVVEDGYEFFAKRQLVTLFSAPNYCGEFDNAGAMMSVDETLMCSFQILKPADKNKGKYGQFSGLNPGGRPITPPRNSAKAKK
From the text: as §4

[6] = Solubility character of lead compounds; type: physicochemical
U87 cells [7] = experiment: Immunofluorescence staining of p53; type: cell-based, human; details: 24 hour exposure, compound 102 2.5 uM, TMZ 25 uM
U87MG = experiment: Western blots of pAkt, p53 and MDM2 in U87MG cells after 24 hours; type: cell-based, human; details: compound 102 2.5 uM, TMZ 25 uM, DOX 2 uM
Procedure: as §3
The effects of compound 102, TMZ, doxorubicin (DOX), a widely used anti-cancer drug that disrupts DNA replication, compound 102 plus TMZ, and compound 102 plus DOX on the amount of pAkt, p53 and MDM2 in U87MG, a cell line with wild-type p53, and in U373, a cell line with mutant p53 (Short et al, 2007) were assessed by Western blots.

U87MG cells [8] = experiment: Cellular and molecular changes in U87MG cells (immunofluorescence, Western blots); type: cell-based, human; details: 2.5 uM
Procedure: FIG. 11A-G: Cellular and molecular changes in U87 cells induced by compound 102 at 2.5 uM after 24 hour exposure (A-D, F, G) and after 3 hours ([…]).
A, Nuclear changes in U87 cells in unsynchronized logarithmic growth (upper panel, green immunofluorescence [IFS] GFP labeled-actin α and lower panel, blue DAPI staining). Numerous irregular nuclei with clumped chromatin in compound 102 treated cells are indicated by arrows. B, Disordered microtubules (green IFS tubulin-α and red IFS pPlk-1-Tre 210) and irregular clumped chromatin (blue DAPI) C, Western blots of U87 lysates: pAkt-1, total Akt-1, and β-actin. D, Western blots of U87 lysates: TCTP, pPlk (Tre-210), total Plk, and β-actin. E, IFS of TCTP in U87 cells, F, Western blots p53 (ser-15), pMDM2 (ser-166), and β-actin and G, IFS of p53 (ser-15).
TCTP is an abundant, highly conserved, multifunctional protein that binds to and stabilizes microtubules before and after mitosis and also exerts potent anti-apoptotic activity (Bommer and Thiele, 2004; Yarm, 2002; Susini et al, 2008) (FIG. 11E).

[9] = system: DAOY medulloblastoma cells; experiment: DAOY medulloblastoma s.c. xenografts in SCID mice; type: in vivo; details: treatment from day 6, measured to day 23
Procedure: DAOY medulloblastoma cells were implanted subcutaneously into the flanks of SCID mice. On day 6, mice were divided into 3 groups, one group receiving Compound 100, one group receiving Compound 102, and one group receiving vehicle alone. The subcutaneous tumor masses were measured on day 6, day 13, day 18, and on day 23 when all animals were sacrificed. […] In this model DAOY cells, when untreated, reached their maximum growth about 2 weeks after implantation with slow regression thereafterwards.

U373 = experiment: Inhibition of U373 glioblastoma cells after 7 days in culture, alone and in combination; type: cell-based, human; details: Compound 100 2.5 μM, cisplatin 0.1 μM, doxorubicin 0.01 μM, taxol 0.3 nM, each alone
Procedure: Cells were exposed to vehicle alone (control); Compound 100 at 2.5 uM; cisplatin at 0.1 uM; doxorubicin at 0.01 uM; or taxol at 0.3 nM alone or to the combination of Compound 100 plus each of the standard agents at the same concentrations. […] The expected percent inhibition at 7 days is the product of the inhibition by each agent alone.
Cells were exposed to vehicle alone (control); compound 100 at 2.5 μM, cisplatin at 0.1 μM; doxorubicin at 0.01 μM; or taxol at 0.3 nM alone or to the combination of compound 100 plus each of the standard agents at the same concentrations. […] The expected percent inhibition from a combination of drugs is calculated by multiplying the actual percent inhibition by each drug alone and comparing that product to the actual percent inhibition caused by the combination of the two drugs (Valeriote, 1975). The expected percent inhibition at 7 days is the product of the inhibition by each agent alone.

U373 cells [10] = experiment: Western blots of pAkt-1, p53 and MDM2 in U373 cells after 24 hours; type: cell-based, human; details: U373, 2 nM
Procedure: as §3

## CC(C)(C)OC(=O)N1CCN(C(=O)C2C(C(=O)O)[C@H]3CC[C@@H]2O3)CC1 (stereo partly shown) [Compound 102]
U373 cells [1]
  cell cycle profile: no effect on this profile
U87MG xenografts; U87 xenografts, for the combination only the 3 mice with recurrence
  time of sacrifice (xenografts reached 1800 mm^3): 4-5 week
U87MG xenografts; compound 102 1.5 mg/kg i.p. days 1-3, 5-7, 9-11, TMZ 80 mg/kg days 4, 8, 12
  growth of GBM (U87MG) xenografts: minimally delayed growth
U87MG xenografts; compound 102 combined with temozolomide, greater than 28 weeks
  GBM xenografts: animals with complete regression without recurrence: 50%
PP2A [2]
  PP2A activity in normal brain tissue: inhibits PP2A activity
  PP2A activity in s.c. xenografts of U87 MG: inhibits PP2A activity
U87MG cells [3]
  G1 phase cells: decreased G1
  G2/M phase cells: prominently increased G2/M
  S phase cells: modestly increased S
PP2A [4]
  IC50: ~0.4 µM
NB xenografts
  cells with decreased cell size / small pyknotic nuclei: ~50%
U87 cells [5]
  IC50: ~4 µM
SH-SY5Y xenografts
  growth of NB (SH-SY5Y) xenografts: completely suppressed growth for 2 weeks
PP1
  IC50: ~80 µM
[6]
  solubility character: lipid soluble
U87 cells [7]
  intracellular levels of p53 by immunofluorescence: reduction of intracellular levels of p53
U87MG
  MDM2 on Western blot: increased both pAkt-1 and MDM2
  p53 on Western blot: eliminated p53
  pAkt-1 on Western blot: increased both pAkt-1 and MDM2
U87MG cells [8]
  p53 abundance: decreased the abundance of p53
  phosphorylated MDM2: increased phosphorylated MDM2
U87MG cells [8]; 24 hour exposure
  TCTP abundance: marked decrease in translationally controlled tumor protein
  microtubule and mitotic morphology (mitotic catastrophe): appearance of disordered microtubules and abnormal mitotic figures
  phosphorylated Akt-1: increased phosphorylated Akt-1
  phosphorylated Plk-1: increased phosphorylated Plk-1
[9]
  DAOY s.c. tumor mass: marked regression of the tumor by day 23

## COc1cccc2c1C(=O)c1c(O)c3c(c(O)c1C2=O)C[C@@](O)(C(=O)CO)C[C@@H]3O[C@H]1C[C@H](N)[C@H](O)[C@H](C)O1 [DOX, doxorubicin]
U373 cells [1]
  G1 phase cells: reduced G1 and G2/M
  G2/M phase cells: reduced G1 and G2/M
  S phase cells: greatly increased S
U373
  inhibition at 7 days, agent alone: 75.7%
U87MG
  MDM2 on Western blot: little effect on MDM2
  p53 on Western blot: increased p53
  pAkt-1 on Western blot: decreased pAkt-1

## C=C1[C@@H](O)[C@@H]2O[C@]3(CC[C@H](/C=C/[C@@H](C)[C@@H]4CC(C)=C[C@@]5(O[C@H](C[C@@](C)(O)C(=O)O)CC[C@H]5O)O4)O3)CC[C@H]2O[C@@H]1[C@@H](O)C[C@H](C)[C@H]1O[C@@]2(CCCCO2)CC[C@H]1C [Okadaic acid, okadaic acid]
U373 cells [10]
  effects on pAkt-1 and mutant p53: mimicked the effects of compound 102 on pAkt-1 and on mutant p53

## Cn1nnc2c(C(N)=O)ncn2c1=O [TMZ, temozolomide, reference compound]
NB xenografts
  cells with cytoplasmic swelling and vacuolization: ~50%

## CC(=O)O[C@H]1C(=O)[C@@]2(C)[C@H]([C@H](OC(=O)c3ccccc3)[C@]3(O)C[C@H](OC(=O)[C@H](O)[C@@H](NC(=O)c4ccccc4)c4ccccc4)C(C)=C1C3(C)C)[C@]1(OC(C)=O)CO[C@@H]1C[C@@H]2O [Taxol]
U373
  inhibition at 7 days, agent alone: 114%

## N.N.[Cl][Pt][Cl] [cisplatin]
U373
  inhibition at 7 days, agent alone: 93.5%
